Reference: patent US12144506B2, “Methods for aneurysm treatment” (Nectero Medical, Inc., priority 2018, dated 2024)

Experiment: safe delivery concentration of PGG as a function of its purity
Conditions: PGG of the stated purity; toxic impurities gallic acid and methyl gallate
Description: The concentrations of PGG which may be safely delivered to a patient may be generally proportional to the purity of the PGG. For example, gallic acid, depicted in FIG. 1B, and methyl gallate, depicted in FIG. 1C, are common cytotoxic impurities which may be removed from a source batch of PGG during the purification process. Eliminating the presence of or reducing the concentration of toxic impurities from the delivered PGG may allow higher concentrations of the PGG to be delivered due to the mitigation of the toxic side effects of impurities commonly found in isolated PGG. For instance, studies have shown that substantially 100% pure PGG may be safely delivered at concentrations up to approximately 0.330% (w/v), 95% pure PGG may be safely delivered at concentrations up to approximately 0.125% (w/v), and 85% pure PGG may be safely delivered at concentrations up to approximately 0.06% (w/v). Delivery of PGG in higher concentrations may enhance the amount of uptake of PGG by the target tissue which may increase the efficacy of the PGG treatment. Delivery of PGG in higher concentrations may increase the rate of uptake of PGG by the tissue allowing the same amount of uptake in shorter delivery times. […]

Row | Substance | concentration up to which PGG may be safely delivered
1 | 1,2,3,4,6-pentagalloyl glucose [substantially 100% pure PGG] | ≤ 0.330 % (w/v)
2 | 1,2,3,4,6-pentagalloyl glucose [85% pure PGG] | ≤ 0.06 % (w/v)
